{"source": "ChEMBL document CHEMBL1141927", "about": "“Quorum sensing in Vibrio harveyi: probing the specificity of the LuxP binding site” (Bioorg Med Chem Lett, 2005)", "assay": "Effective concentration to induce a quorum signal in Vibrio harveyi(by binding Lux P protein)", "format": "functional"}
{"smiles": "CC(=O)C(=O)[C@H](O)[C@H](O)CO", "values": [{"measurement": "EC50", "result": 429, "unit": "µM"}]}
{"smiles": "CC(=O)C(=O)CCO", "values": [{"measurement": "EC50", "result": 27, "unit": "µM"}]}
{"smiles": "CC(=O)C(=O)[C@@H](O)CO", "values": [{"measurement": "EC50", "result": 0.044, "unit": "µM"}]}
{"smiles": "CC(=O)C(=O)[C@H](O)CO", "values": [{"measurement": "EC50", "result": 84, "unit": "µM"}]}
{"smiles": "O=C1O[C@H]([C@@H](O)CO)C(O)=C1O", "note": "[ASCORBIC ACID]", "values": [{"measurement": "EC50", "result": 737, "unit": "µM"}]}
{"smiles": "O=C(CO)[C@H](O)[C@H](O)CO", "values": [{"measurement": "EC50", "result": 108, "unit": "µM"}]}
{"smiles": "O=C(CO)[C@@H](O)[C@H](O)CO", "values": [{"measurement": "EC50", "result": 560, "unit": "µM"}]}
